Counter-ions that a name gives are not always drawn.
Legend:
Assay type in all cases: biochemical
Bovine LOX = Bovine LOX (Bos taurus (Bovine), UniProt P33072); assay: LOX inhibition, peroxidase-coupled Amplex Red amine oxidase assay; details: 30 min preincubation at 37° C., putrescine substrate
Text: (§1) Method to Determine the Ability of Compounds of the Invention to Inhibit LOX and LOXL1-4 from Different Sources
Lysyl oxidase (LOX) is an extracellular copper dependent enzyme which oxidizes peptidyl lysine and hydroxylysine residues in collagen and lysine residues in elastin to produce peptidyl alpha-aminoadipic-delta-semialdehydes. […] There are five LOX family members; these are LOX, LOXL1, LOXL2, LOXL3 and LOXL4. LOX and LOXL family members can be acquired as recombinant active proteins from commercial sources, or extracted from animal tissues like bovine aorta, tendons, pig skin; or prepared from cell cultures. The inhibitory effects of the compounds of the present invention were tested against the given LOX-LOXL preparation using a high-throughput coupled colorimetric method (Holt A. and Palcic M., A peroxidase-coupled continuous absorbance plate-reader assay for flavin monoamine oxidases, copper-containing amine oxidases and related enzymes. Nat. Protoc. 2006; 1: 2498-2505). The assay was developed using either 384 or 96 well format. Briefly, in a standard 384 well plate assay 25 μL of a dilution of any of the isoenzymes and orthologues in 1.2 M urea, 50 mM sodium borate buffer (pH 8.2) were added into each well in the presence of 1 μM mofegiline and 0.5 mM pargyline (to inhibit SSAO and MAO-B and MAO-A, respectively). […] of a reaction mixture containing twice the KM concentration of putrescine (Sigma Aldrich, e.g. 20 mM for LOX, or 10 mM for LOXL2 and LOXL3), 120 μM Amplex Red (Sigma Aldrich) and 1.5 U/mL horseradish peroxidase (Sigma Aldrich) prepared in 1.2 M urea, 50 mM sodium borate buffer (pH 8.2) were then added to the corresponding wells. The above volumes were doubled in the case of 96 wells plate. The fluorescence (RFU) was read every 2.5 min for 30 min at a range of temperatures from 37° to 45° C., excitation 565 nm and emission 590 (Optima; BMG labtech). The slope of the kinetics for each well was calculated using MARS data analysis software (BMG labtech) and this value was used to deduce the IC50 value (Dotmatics).

Human LOXL2 = Human LOXL2 (Homo sapiens (Human), UniProt Q9Y4K0); assay: LOXL2 inhibition, peroxidase-coupled Amplex Red amine oxidase assay; details: 30 min preincubation at 37° C., putrescine substrate
Text: as §1
Lysyl oxidase (LOX) is an extracellular copper dependent enzyme which oxidizes peptidyl lysine and hydroxylysine residues in collagen and lysine residues in elastin to produce peptidyl alpha-aminoadipic-delta-semialdehydes. […] There are five LOX family members; these are LOX, LOXL1, LOXL2, LOXL3 and LOXL4. LOX and LOXL family members can be acquired as recombinant active proteins from commercial sources, or extracted from animal tissues like bovine aorta, tendons, pig skin; or prepared from cell cultures. The inhibitory effects of the compounds of the present invention were tested against the given LOX-LOXL preparation using a high-throughput coupled colorimetric method (Holt A. and Palcic M., A peroxidase-coupled continuous absorbance plate-reader assay for flavin monoamine oxidases, copper-containing amine oxidases and related enzymes. Nat. Protoc. 2006; 1: 2498-2505). The assay was developed using either 384 or 96 well format. Briefly, in a standard 384 well plate assay 25 μL of a dilution of any of the isoenzymes and orthologues in 1.2 M urea, 50 mM sodium borate buffer (pH 8.2) were added into each well in the presence of 1 μM mofegiline and 0.5 mM pargyline (to inhibit SSAO and MAO-B and MAO-A, respectively). Test compounds were dissolved in DMSO and tested in a Concentration Response Curve (CRC) with 11 data points, typically in the micromolar or nanomolar range after incubation with the enzyme for 30 min at 37° C. Twenty five L of a reaction mixture containing twice the KM concentration of putrescine (Sigma Aldrich, e.g. 20 mM for LOX, or 10 mM for LOXL2 and LOXL3), 120 μM Amplex Red (Sigma Aldrich) and 1.5 U/mL horseradish peroxidase (Sigma Aldrich) prepared in 1.2 M urea, 50 mM sodium borate buffer (pH 8.2) were then added to the corresponding wells. The above volumes were doubled in the case of 96 wells plate. The fluorescence (RFU) was read every 2.5 min for 30 min at a range of temperatures from 37° to 45° C., excitation 565 nm and emission 590 (Optima; BMG labtech). The slope of the kinetics for each well was calculated using MARS data analysis software (BMG labtech) and this value was used to deduce the IC50 value (Dotmatics).

[1] = molecular target: human recombinant SSAO/VAP-1 (Homo sapiens (Human), UniProt Q16853); assay: Inhibition of human recombinant SSAO/VAP-1 amine oxidase activity; details: 30 min preincubation at 37° C., 600 μM benzylamine
Procedure: Method to Determine the Ability of Compounds of Formula I to Inhibit Human Recombinant SSAO/VAP-1
Human recombinant SSAO/VAP-1 amine oxidase activity was determined using the coupled colorimetric method as described for monoamine oxidase, copper-containing amine oxidases and related enzymes (Holt A. and Palcic M., A peroxidase-coupled continuous absorbance plate-reader assay for flavin monoamine oxidases, copper-containing amine oxidases and related enzymes. Nat Protoc 2006; 1: 2498-2505). Briefly, a cloned cDNA template corresponding to residues 34-763 of human SSAO/VAP-1, and incorporating a mouse Ig kappa (κ) signal sequence, N-terminal flag epitope tag and tobacco etch virus (TEV) cleavage site, was assembled in a mammalian expression vector (pLO-CMV) by Geneart AG. This vector containing human SSAO/VAP-1 residues was transfected into CHO-K1 glycosylation mutant cell line, Lec 8. A clone stably expressing human SSAO/VAP-1 was isolated and cultured in large scale. Active human SSAO/VAP-1 was purified and recovered using immunoaffinity chromatography. This was used as the source for SSAO/VAP-1 activity. A high-throughput colorimetric assay was developed using either 96 or 384 well format. Briefly, in a standard 96 well plate assay 50 μL of purified human SSAO/VAP-1 (0.25 μg/mL) in 0.1 M sodium phosphate buffer (pH 7.4) was added into each well. Test compounds were dissolved in DMSO and tested in a Concentration Response Curve (CRC) with 4-11 data points, typically in the micromolar or nanomolar range after incubation with human SSAO/VAP-1 for 30 min at 37° C. After 30 min incubation, 50 μL of the reaction mixture containing 600 μM benzylamine (Sigma Aldrich), 120 μM Amplex Red (Sigma Aldrich) and 1.5 U/mL horseradish peroxidase (Sigma Aldrich) prepared in 0.1 M sodium phosphate buffer (pH 7.4) were added to the corresponding well. The fluorescence unit (RFU) was read every 2.5 min for 30 min at 37° C. excitation 565 nm and emission 590 (Optima; BMG labtech). The slope of the kinetics for each well was calculated using MARS data analysis software (BMG labtech) and this value was used to deduce the IC50 value (Dotmatics).

Recombinant human MAO-B = Recombinant human MAO-B (Homo sapiens (Human), UniProt P27338); assay: Inhibition of human recombinant MAO-B; details: benzylamine 100 μM
Procedure: Method to Determine the Ability of Compounds of Formula I to Inhibit Human Recombinant MAO-B
The specificity of the compounds of this invention was tested by determining their ability to inhibit MAO-B activities in vitro. Recombinant human MAO-B (0.06 mg/mL; Sigma Aldrich) was used as source of MAO-B enzyme activities. The assay was performed in a similar way as for human SSAO/VAP-1 (Example 66) except, the substrate benzylamine was used at 100 μM.

Sequence of Recombinant human MAO-B (P27338 whole entry): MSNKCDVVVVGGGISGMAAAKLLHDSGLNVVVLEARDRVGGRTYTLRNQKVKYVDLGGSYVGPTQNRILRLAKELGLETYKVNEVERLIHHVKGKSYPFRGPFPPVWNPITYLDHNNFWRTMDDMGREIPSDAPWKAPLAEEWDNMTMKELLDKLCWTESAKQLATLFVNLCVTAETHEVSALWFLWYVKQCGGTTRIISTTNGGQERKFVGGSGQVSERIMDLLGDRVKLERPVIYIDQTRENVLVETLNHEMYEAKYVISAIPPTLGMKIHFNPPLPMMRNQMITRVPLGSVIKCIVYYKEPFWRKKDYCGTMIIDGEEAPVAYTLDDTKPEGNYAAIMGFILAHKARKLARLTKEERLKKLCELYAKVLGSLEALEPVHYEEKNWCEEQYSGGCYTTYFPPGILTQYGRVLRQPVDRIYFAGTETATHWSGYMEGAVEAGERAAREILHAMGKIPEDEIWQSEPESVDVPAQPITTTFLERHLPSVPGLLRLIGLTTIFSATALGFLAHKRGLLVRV
Sequence of human recombinant SSAO/VAP-1 (Q16853 34-763): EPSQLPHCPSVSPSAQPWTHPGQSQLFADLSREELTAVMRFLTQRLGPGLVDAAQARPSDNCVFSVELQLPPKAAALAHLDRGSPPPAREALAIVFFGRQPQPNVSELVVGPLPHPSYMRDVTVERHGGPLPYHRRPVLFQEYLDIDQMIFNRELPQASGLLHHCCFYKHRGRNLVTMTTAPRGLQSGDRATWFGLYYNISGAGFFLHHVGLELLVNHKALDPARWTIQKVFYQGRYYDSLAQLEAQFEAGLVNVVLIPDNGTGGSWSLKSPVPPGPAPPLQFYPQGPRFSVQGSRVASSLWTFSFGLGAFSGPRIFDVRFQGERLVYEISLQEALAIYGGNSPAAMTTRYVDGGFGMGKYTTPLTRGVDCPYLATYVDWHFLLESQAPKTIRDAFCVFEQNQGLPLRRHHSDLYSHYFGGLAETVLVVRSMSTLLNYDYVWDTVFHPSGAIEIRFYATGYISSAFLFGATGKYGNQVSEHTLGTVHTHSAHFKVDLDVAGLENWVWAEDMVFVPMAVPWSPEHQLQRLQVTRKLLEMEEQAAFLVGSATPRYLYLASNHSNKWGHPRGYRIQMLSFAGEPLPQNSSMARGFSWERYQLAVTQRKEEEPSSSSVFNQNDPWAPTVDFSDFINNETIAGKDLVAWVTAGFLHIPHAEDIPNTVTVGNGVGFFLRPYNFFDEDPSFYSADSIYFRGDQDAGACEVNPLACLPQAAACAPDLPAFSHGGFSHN
Sequence of Human LOXL2 (Q9Y4K0 26-774): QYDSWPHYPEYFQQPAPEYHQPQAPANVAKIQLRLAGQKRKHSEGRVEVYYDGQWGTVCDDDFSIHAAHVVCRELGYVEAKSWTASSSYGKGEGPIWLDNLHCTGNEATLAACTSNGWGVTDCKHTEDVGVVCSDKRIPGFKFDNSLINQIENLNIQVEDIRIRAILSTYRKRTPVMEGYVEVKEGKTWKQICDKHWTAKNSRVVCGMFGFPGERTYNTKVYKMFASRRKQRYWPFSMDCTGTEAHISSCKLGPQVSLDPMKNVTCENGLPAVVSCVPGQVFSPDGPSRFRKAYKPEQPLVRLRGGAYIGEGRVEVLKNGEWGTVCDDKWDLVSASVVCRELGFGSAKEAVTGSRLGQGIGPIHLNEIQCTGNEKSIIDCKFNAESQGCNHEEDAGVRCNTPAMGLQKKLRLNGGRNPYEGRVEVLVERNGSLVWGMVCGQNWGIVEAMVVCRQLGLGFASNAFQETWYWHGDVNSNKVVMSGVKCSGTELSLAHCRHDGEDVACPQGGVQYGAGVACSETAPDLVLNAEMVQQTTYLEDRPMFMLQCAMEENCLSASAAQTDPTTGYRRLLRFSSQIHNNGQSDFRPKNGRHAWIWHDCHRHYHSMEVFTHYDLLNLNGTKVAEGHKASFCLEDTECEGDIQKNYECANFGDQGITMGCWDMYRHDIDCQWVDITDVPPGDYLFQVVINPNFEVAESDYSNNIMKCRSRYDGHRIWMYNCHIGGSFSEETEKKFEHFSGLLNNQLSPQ
Sequence of Bovine LOX (P33072 170-418): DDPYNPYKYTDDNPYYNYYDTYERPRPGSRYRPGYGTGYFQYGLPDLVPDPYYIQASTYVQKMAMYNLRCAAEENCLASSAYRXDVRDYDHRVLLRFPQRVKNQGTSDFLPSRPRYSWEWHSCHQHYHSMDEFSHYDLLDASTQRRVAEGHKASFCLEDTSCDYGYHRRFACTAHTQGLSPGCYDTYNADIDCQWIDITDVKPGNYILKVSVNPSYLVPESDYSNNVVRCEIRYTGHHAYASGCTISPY

## Cc1c(-c2cncc(S(=O)(=O)N(C)C)c2)c2cc(Cl)ccc2n1C/C(F)=C/CN [Compound 64, (Z)-5-(1-(4-amino-2-fluorobut-2-en-1-yl)-5-chloro-2-methyl-1H-indol-3-yl)-N,N-dimethylpyridine-3-sulfonamide]
Bovine LOX
  IC50: > 0.3 µM
Human LOXL2
  IC50: < 0.3 µM
[1]
  IC50: > 3 µM
Recombinant human MAO-B
  IC50: > 3 µM

## Cc1cc(-c2c(C)n(C/C(F)=C/CN)c3ccc([N+](=O)[O-])cc23)cc(C)n1 [Compound 101, (Z)-4-(3-(2,6-dimethylpyridin-4-yl)-2-methyl-5-nitro-1H-indol-1-yl)-3-fluorobut-2-en-1-amine]
Bovine LOX
  IC50: > 0.3 µM
Human LOXL2
  IC50: < 0.3 µM
[1]
  IC50: > 3 µM
Recombinant human MAO-B
  IC50: > 3 µM

## Cc1cc(-c2c(C)n(C/C(F)=C/CN)c3ccc(NS(C)(=O)=O)cc23)cc(C)n1 [Compound 102, (Z)—N-(1-(4-amino-2-fluorobut-2-en-1-yl)-3-(2,6-dimethylpyridin-4-yl)-2-methyl-1H-indol-5-yl)methanesulfonamide Dihydrochloride]
Bovine LOX
  IC50: > 0.3 µM
Human LOXL2
  IC50: < 0.3 µM
[1]
  IC50: > 3 µM
Recombinant human MAO-B
  IC50: > 3 µM

## Cc1c(-c2cccc(S(=O)(=O)N(C)C)c2)c2cnccc2n1C/C(F)=C/CN [Compound 26, (Z)-3-(1-(4-amino-2-fluorobut-2-en-1-yl)-2-methyl-1H-pyrrolo[3,2-c]pyridin-3-yl)-N,N-dimethylbenzenesulfonamide Dihydrochloride]
Bovine LOX
  IC50: > 0.3 µM
Human LOXL2
  IC50: < 0.3 µM
[1]
  IC50: > 3 µM
Recombinant human MAO-B
  IC50: > 3 µM

## Cc1c(-c2cccc(S(=O)(=O)N(C)C)c2)c2cc(NS(C)(=O)=O)ccc2n1C/C(F)=C/CN [Compound 104, (Z)-3-(1-(4-amino-2-fluorobut-2-en-1-yl)-2-methyl-5-(methylsulfonamido)-1H-indol-3-yl)-N,N-dimethylbenzenesulfonamide Hydrochloride]
Bovine LOX
  IC50: > 0.3 µM
Human LOXL2
  IC50: < 0.3 µM
[1]
  IC50: > 3 µM
Recombinant human MAO-B
  IC50: > 3 µM

## Cc1c(-c2cccc(S(=O)(=O)N(C)C)c2)c2nc(C(F)(F)F)ccc2n1C/C(F)=C/CN [Compound 110, (Z)-3-(1-(4-amino-2-fluorobut-2-en-1-yl)-2-methyl-5-(trifluoromethyl)-1H-pyrrolo[3,2-b]pyridin-3-yl)-N,N-dimethylbenzenesulfonamide]
Bovine LOX
  IC50: > 0.3 µM
Human LOXL2
  IC50: < 0.3 µM
[1]
  IC50: > 3 µM
Recombinant human MAO-B
  IC50: > 3 µM

## Cc1c(-c2cccc(S(=O)(=O)N(C)C)c2)c2ncc(F)cc2n1C/C(F)=C/CN [Compound 108, (Z)-3-(1-(4-amino-2-fluorobut-2-en-1-yl)-6-fluoro-2-methyl-1H-pyrrolo[3,2-b]pyridin-3-yl)-N,N-dimethylbenzenesulfonamide]
Bovine LOX
  IC50: > 0.3 µM
Human LOXL2
  IC50: < 0.3 µM
[1]
  IC50: > 3 µM
Recombinant human MAO-B
  IC50: > 3 µM

## Cc1c(-c2cccc(S(=O)(=O)N(C)C)c2)c2nc(N(C)C)ccc2n1C/C(F)=C/CN [Compound 105, (Z)-3-(1-(4-amino-2-fluorobut-2-en-1-yl)-5-(dimethylamino)-2-methyl-1H-pyrrolo[3,2-b]pyridin-3-yl)-N,N-dimethylbenzenesulfonamide Dihydrochloride]
Bovine LOX
  IC50: > 0.3 µM
Human LOXL2
  IC50: < 0.3 µM
[1]
  IC50: > 3 µM
Recombinant human MAO-B
  IC50: > 3 µM

## Cc1c(-c2cccc(S(=O)(=O)N(C)C)c2)c2cccnc2n1C/C(F)=C/CN [Compound 4, (Z)-3-(1-(4-amino-2-fluorobut-2-en-1-yl)-2-methyl-1H-pyrrolo[2,3-b]pyridin-3-yl)-N,N-dimethylbenzenesulfonamide]
Bovine LOX
  IC50: > 0.3 µM
Human LOXL2
  IC50: < 0.3 µM
[1]
  IC50: > 3 µM
Recombinant human MAO-B
  IC50: > 3 µM

## Cc1c(-c2cccc(S(=O)(=O)N(C)C)c2)c2ccncc2n1C/C(F)=C/CN [Compound 32, (Z)-3-(1-(4-amino-2-fluorobut-2-en-1-yl)-2-methyl-1H-pyrrolo[2,3-c]pyridin-3-yl)-N,N-dimethylbenzenesulfonamide Dihydrochloride]
Bovine LOX
  IC50: > 0.3 µM
Human LOXL2
  IC50: < 0.3 µM
[1]
  IC50: > 3 µM
Recombinant human MAO-B
  IC50: > 3 µM

## Cc1c(-c2cccc(S(=O)(=O)N(C)C)c2)c2ccc(C(=O)N(C)C)cc2n1C/C(F)=C/CN [Compound 10, (Z)-1-(4-amino-2-fluorobut-2-en-1-yl)-3-(3-(N,N-dimethylsulfamoyl)phenyl)-N,N,2-trimethyl-1H-indole-6-carboxamide]
Bovine LOX
  IC50: > 0.3 µM
Human LOXL2
  IC50: < 0.3 µM
[1]
  IC50: > 3 µM
Recombinant human MAO-B
  IC50: > 3 µM

## Cc1c(-c2cccc(S(=O)(=O)N(C)C)c2)c2cc(S(=O)(=O)N(C)C)ccc2n1C/C(F)=C/CN [Compound 58, (Z)-1-(4-amino-2-fluorobut-2-en-1-yl)-3-(3-(N,N-dimethylsulfamoyl)phenyl)-N,N,2-trimethyl-1H-indole-5-sulfonamide]
Bovine LOX
  IC50: > 0.3 µM
Human LOXL2
  IC50: < 0.3 µM
[1]
  IC50: > 3 µM
Recombinant human MAO-B
  IC50: > 3 µM

## Cc1c(-c2cccc(S(=O)(=O)N(C)C)c2)c2cc(O)ccc2n1C/C(F)=C/CN [Compound 37, (Z)-3-(1-(4-amino-2-fluorobut-2-en-1-yl)-5-hydroxy-2-methyl-1H-indol-3-yl)-N,N-dimethylbenzenesulfonamide]
Bovine LOX
  IC50: > 0.3 µM
Human LOXL2
  IC50: < 0.3 µM
[1]
  IC50: > 3 µM
Recombinant human MAO-B
  IC50: > 3 µM
